From paper PMC10610494, “Anticancer Peptides Derived from Aldolase A and Induced Tumor-Suppressing Cells Inhibit Pancreatic Ductal Adenocarcinoma Cells” (Pharmaceutics, 2023) come the findings set out here.

Data set [1] concerns human PDAC tissue fragments. As to the kind of experiment: Ex vivo PDAC tissue fragment assay. The format is cell-based. From the text: The utilization of human pancreatic cancer tissue was approved by the Indiana University Institutional Review Board (1911155674), and the tissue samples were sourced from the Indiana University Simon Comprehensive Cancer Center Tissue Procurement Core. A freshly procured pancreatic cancer tissue, weighing approximately 1 g, was manually sectioned into small fragments (ranging from 0.5 to 0.8 mm in length) using a scalpel. These fragments were subsequently cultured in DMEM supplemented with 10% FBS and antibiotics for one day. Following this initial incubation, the described conditioned medium (CM) was introduced and maintained for an additional four days, during which any alterations in fragment size were assessed.

The test system of data set [2] is PANC1 cells. Briefly: MTT-based viability assay. The format is cell-based, human. Conditions: for IC50: Homo sapiens. The procedure:
(§1) MTT-based assessment of metabolic activity involved seeding approximately 2000 cells into 96-well plates. These cells were subsequently incubated with treatment agents for two days. On day 4, the cells were subjected to staining with 0.5 mg/mL thiazolyl blue tetrazolium bromide (M5655, Sigma). The determination of metabolic activity was based on the measurement of optical density at 562 nm. For the evaluation of proliferation activity using the EdU assay, around 1000 cells were seeded into 96-well plates. A fluorescence-based cell proliferation kit (Click-iT™ EdU Alexa Fluor™ 488 Imaging Kit; Thermo Fisher, Waltham, MA, USA) was employed, following the manufacturer’s protocol. This kit facilitated the detection of EdU incorporation as an indicator of proliferating cells.
On the technique in general: Tetrazolium dyes change colour on reduction, which living cells bring about.

The test system of data set [3] is PANC1 cells. As to the kind of experiment: EdU proliferation assay. As to conditions: 25 μg of P04. The format is cell-based, human. The procedure: as §1
Data set [4] deals with PANC1 cells. Briefly: Wound-healing scratch assay (motility). The format is cell-based, human. Conditions: 25 μg/mL peptide, 0 h vs 24 h. The procedure: To analyze the two-dimensional migratory behavior of PANC cells, a wound-healing scratch assay was employed to assess the change in the scratched area. Around 3 × 10^5 cells were seeded into 12-well plates on day 1. On day 2, a scratch was carefully created on the cell layer using the tip of a plastic pipette. The cells were then rinsed with DMEM to eliminate any detached cells. Images of the cell-free areas were captured at both 0 h and 24 h using a light microscope (40× magnification). The sizes of the cell-free zones were subsequently quantified using Image J (v1.5.4f).

Data set [5] deals with ALDOA. Briefly: Western blot analysis. The format is cell-based, human. The procedure:
(§2) Cell lysis was achieved using RIPA lysis buffer (sc-24948, Santa Cruz Biotech, Dallas, TX, USA), supplemented with protease inhibitors (PIA32963, Thermo Fisher), and phosphatase inhibitors (2006643, Calbiochem, Billerica, MA, USA). Subsequently, proteins were separated using 10–15% SDS gels (Bio-Rad Laboratories, Hercules, CA, USA) and then transferred onto polyvinylidene difluoride membranes (IPVH00010, Millipore, Billerica, MA, USA). The membrane was first incubated with primary antibodies, followed by secondary antibodies (7074S/7076S, Cell Signaling, Danvers, MA, USA). Antibodies against ALDOA, Snail, p-Src, Src, cleaved caspase 3, caspase 3 (Cell Signaling), and K-Ras (Santa Cruz Biotech) were employed, with β-actin (Sigma) serving as a control. Protein levels were determined utilizing the Super-Signal West Femto Maximum Sensitivity Substrate (PI34096, Thermo Fisher), and signal intensities were quantified using a luminescent image analyzer (LAS-3000, Fuji Film, Tokyo, Japan).
In general terms: A western blot detects proteins with antibodies after separation by electrophoresis.

The test system of data set [6] is p-Src. As to the kind of experiment: Western blot analysis. Type of data set: cell-based, human. As to conditions: 25 μg/mL P04. The procedure:
as §2

Data set [7] deals with K-Ras. As to the kind of experiment: Western blot analysis. The format is cell-based, human. On the procedure:
as §2

Data set [8] relates to Snail. Briefly: Western blot analysis. Type of data set: cell-based, human. As to conditions: 25 μg/mL P04. The procedure:
as §2

The test system of data set [9] is cleaved caspase 3. Briefly: Western blot analysis. The format is cell-based, human. Conditions: 25 μg/mL P04. The procedure:
as §2

Data set [10] relates to PANC1 cells. As to the kind of experiment: Transwell invasion assay. Conditions: 25 μg of P04. The format is cell-based, human. On the procedure: To assess the invasive potential of tumor cells, a 12-well plate and transwell chambers (353,182, Thermo Fisher) featuring 8-µm pore size were employed. The transwell chambers were pre-coated with 300 µL of Matrigel (100 µg/mL), followed by the addition of 500 µL of serum-free medium. Afterward, the chambers were rinsed three times with a serum-free medium. Subsequently, approximately 7 × 10^4 cells in 300 µL of serum-free DMEM were introduced into the upper chamber, while 800 µL of the conditioned medium (CM) was added to the lower chamber. Upon completion of the experiment, cells that had invaded the lower side of the membrane were fixed and stained using methanol and crystal violet. Utilizing an inverted optical microscope (100×), five randomly selected images were captured. From these images, the average count of stained cells, serving as an indicator of the invasion capacity, was determined.

In data set [11] the test system is PAN198 cells. As to the kind of experiment: MTT-based viability assay. The format is cell-based, human. Conditions: 25 μg/mL peptide, incubated two days, vs control. On the procedure:
as §1

Data set [12] deals with PA03C cells. Briefly: MTT-based viability assay. Type of data set: cell-based, human. As to conditions: 25 μg/mL peptide, incubated two days, vs control. On the procedure:
as §1

Data set [13] has as its system MSCs. As to the kind of experiment: MTT-based viability of MSCs. Type of data set: cell-based, mice. As to conditions: P04; assay not specified, no data shown. The procedure:
Human pancreatic ductal adenocarcinoma (PDAC) cell lines including PANC1 (ATCC, Manassas, VA, USA), PANC198, and Pa03C (sourced from Indiana University Simon Comprehensive Cancer Center, Indianapolis, IN, USA) were cultured in DMEM (10-013-CV, Corning Inc., Corning, NY, USA). The breast cancer cell lines MDA-MB-231 and MDA-MB-436 (ATCC) were grown in RPMI-1640 medium (Gibco, Carlsbad, CA, USA). The culture media for all cell lines were supplemented with 10% fetal bovine serum and antibiotics (100 units/mL penicillin and 100 µg/mL streptomycin; Life Technologies, Grand Island, NY, USA). Jurkat T lymphocytes (ATCC) were cultured in RPMI-1640 medium (10-040-CV, Corning). Murine MSCs derived from the bone marrow of C57BL/6 mice were cultured in DMEM. All cell cultures were maintained at 37 °C with 5% CO2. The overexpression of ALDOA was accomplished by transfecting its plasmids (109,854; Addgene, Cambridge, MA, USA), while blank plasmids (FLAG-HA-pcDNA3.1; Addgene) were employed as controls.
MTT-based assessment of metabolic activity involved seeding approximately 2000 cells into 96-well plates. These cells were subsequently incubated with treatment agents for two days. […] A fluorescence-based cell proliferation kit (Click-iT™ EdU Alexa Fluor™ 488 Imaging Kit; Thermo Fisher, Waltham, MA, USA) was employed, following the manufacturer’s protocol. […]

The mark [14] stands for this setting: PANC-1, chemotherapeutic agent alone.
[15] abbreviates: PANC-1, chemotherapeutic agent together with 25 μg/mL P04.
[16] abbreviates: following administration of rhALDOA.

On to `O=c1[nH]cc(F)c(=O)[nH]1` [5-Flu, 5-fluorouracil], for which, in data set [1] (10 μM 5-Flu alone, 96 h, n = 8), the PDAC fragment size entry is “reduction”. Moreover, the figures for the half-maximal inhibitory concentration (IC50) in data set [2] (setting [14]) and in data set [2] (setting [15]) were 3.3 µM and 1.6 µM, respectively.
Take `Nc1ccn([C@@H]2O[C@H](CO)[C@@H](O)C2(F)F)c(=O)n1` [gemcitabine]: the half-inhibitory concentration (IC50) (commonly the concentration that inhibits the measured activity by half) in data set [2] (setting [14]) was found to be 1 µM; in data set [2] (setting [15]) it was 0.8 µM.
For “IGEHTPSALAIMENANVLAR [P04, anticancer peptide derived from aldolase A (ALDOA)]”, the PDAC fragment size result in [1] (25 μg/mL P04, 96 h, n = 8, patient tissue ex vivo) is listed as “notable reduction”. Moreover, the “EdU-based proliferation of PANC1 cells” value in [3] is on record as “discernible decrease”. Also, in data set [4], the “scratch-based motility of PANC1 cells” value is on record as “reduction”. The ALDOA level result in [5] (PANC1 cells, 25 μg/mL P04) was “decrease”. The p-Src level result in [6] (PAN198 cells) and in data set [6] (PANC1 cells) was “downregulation” throughout. Moreover, in data set [7] (PANC1 cells, 25 μg/mL P04), the K-Ras level entry is on record as “discernible reduction”. Also, the Snail level entry in [8] (PAN198 cells) and in [8] (PANC1 cells) was “downregulation” in each case. The “cleaved caspase 3 level” value in data set [9] (PAN198 cells) is “increase”; in data set [9] (PANC1 cells), “elevation”. Moreover, the “transwell-based invasion of PANC1 cells” value in data set [10] is “discernible decrease”. Also, in data set [11], the “MTT-based viability of PAN198 cells” value was “reduction”. In addition, the “MTT-based viability of PA03C cells” value in data set [12] was “reduction”. Also, the “MTT-based viability of PANC1 cells” value in data set [2] (25 μg/mL peptide, incubated two days, vs control) is “reduction”. Also, the “inhibitory effect on mesenchymal stem cells (MSC growth)” value in data set [13] is given as “no inhibitory effect”.

B1: rhALDOA: human recombinant ALDOA protein (MBS8248528, MyBioSource) (protein, UniProt P04075 2-364, looked up)
Fructose-bisphosphate …: PYQYPALTPEQKKELSDIAHRIVAPGKGILAADESTGSIAKRLQSIGTENTEENRRFYRQLLLTADDRVNPCIGGVILFHETLYQKADDGRPFPQVIKSKGGVVGIKVDKGVVPLAGTNGETTTQGLDGLSERCAQYKKDGADFAKWRCVLKIGEHTPSALAIMENANVLARYASICQQNGIVPIVEPEILPDGDHDLKRCQYVTEKVLAAVYKALSDHHIYLEGTLLKPNMVTPGHACTQKFSHEEIAMATVTALRRTVPPAVTGITFLSGGQSEEEASINLNAINKCPLLKPWALTFSYGRALQASALKAWGGKKENLKAAQEEYVKRALANSLACQGKYTPSGQAGAAASESLFVSNHAY
As for B1, the ALDOA level result in [5] (setting [16]) is “discernible decreases”. Further, the K-Ras level entry in data set [7] (setting [16]) was “discernible decreases”. In addition, the “MTT-based viability of PANC1 cells” value in [2] (5 μg/mL recombinant ALDOA protein) is “notable reduction”.
